From BindingDB's records for PubMed 7915318 (Ohio State University, 1994)
Several values for one entry are separate records, joined by “and”; a condition that tells them apart may be missing. Equal values may be shown once.

What was measured:
[1] = target: Beta-1 adrenergic receptor (Homo sapiens, UniProt P08588)
[2] = target: Beta-2 adrenergic receptor (Homo sapiens, UniProt P07550)
[3] = target: Beta-1 adrenergic receptor (Cavia porcellus, UniProt B0FL73)
[4] = target: Beta-2 adrenergic receptor (Cavia porcellus, UniProt Q8K4Z4)
Beta-2 adrenergic receptor (Cavia porcellus, UniProt Q8K4Z4), sequence (Q8K4Z4 whole entry): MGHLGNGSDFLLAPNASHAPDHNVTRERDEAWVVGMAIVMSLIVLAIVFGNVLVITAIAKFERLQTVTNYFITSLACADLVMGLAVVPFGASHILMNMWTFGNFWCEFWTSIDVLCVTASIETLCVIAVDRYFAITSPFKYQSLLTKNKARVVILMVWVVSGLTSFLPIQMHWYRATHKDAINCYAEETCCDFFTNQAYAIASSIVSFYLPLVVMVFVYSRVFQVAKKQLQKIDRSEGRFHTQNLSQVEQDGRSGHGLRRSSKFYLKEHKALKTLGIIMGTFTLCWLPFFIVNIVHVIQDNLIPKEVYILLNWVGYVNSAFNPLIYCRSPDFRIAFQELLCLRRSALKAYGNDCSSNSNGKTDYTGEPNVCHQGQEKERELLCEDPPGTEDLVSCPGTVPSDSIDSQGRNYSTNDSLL

Beta-1 adrenergic receptor (Cavia porcellus, UniProt B0FL73), sequence (B0FL73 whole entry): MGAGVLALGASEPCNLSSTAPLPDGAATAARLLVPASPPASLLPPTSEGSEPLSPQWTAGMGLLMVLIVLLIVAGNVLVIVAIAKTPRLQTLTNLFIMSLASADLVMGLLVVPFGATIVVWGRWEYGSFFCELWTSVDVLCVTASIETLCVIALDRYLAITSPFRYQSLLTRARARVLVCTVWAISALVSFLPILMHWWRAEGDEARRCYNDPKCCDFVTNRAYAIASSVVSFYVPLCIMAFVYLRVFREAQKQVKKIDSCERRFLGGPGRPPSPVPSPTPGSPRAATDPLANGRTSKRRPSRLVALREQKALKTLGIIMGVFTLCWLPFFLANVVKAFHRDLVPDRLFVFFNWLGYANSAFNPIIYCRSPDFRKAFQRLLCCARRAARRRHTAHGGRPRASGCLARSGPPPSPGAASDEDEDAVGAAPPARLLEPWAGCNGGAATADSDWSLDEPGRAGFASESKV
Beta-2 adrenergic receptor (Homo sapiens, UniProt P07550), sequence (P07550 whole entry): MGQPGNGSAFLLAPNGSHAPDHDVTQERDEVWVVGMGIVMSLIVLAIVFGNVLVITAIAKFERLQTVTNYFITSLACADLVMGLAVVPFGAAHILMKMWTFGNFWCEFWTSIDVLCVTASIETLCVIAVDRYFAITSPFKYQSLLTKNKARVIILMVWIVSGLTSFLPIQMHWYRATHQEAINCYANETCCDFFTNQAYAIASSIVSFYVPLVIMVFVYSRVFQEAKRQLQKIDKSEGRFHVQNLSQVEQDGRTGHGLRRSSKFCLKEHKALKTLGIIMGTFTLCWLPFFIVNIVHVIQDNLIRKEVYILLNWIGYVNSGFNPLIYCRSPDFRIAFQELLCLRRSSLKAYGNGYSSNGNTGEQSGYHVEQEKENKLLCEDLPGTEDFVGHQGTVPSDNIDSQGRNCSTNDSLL
Beta-1 adrenergic receptor (Homo sapiens, UniProt P08588), sequence (P08588 whole entry): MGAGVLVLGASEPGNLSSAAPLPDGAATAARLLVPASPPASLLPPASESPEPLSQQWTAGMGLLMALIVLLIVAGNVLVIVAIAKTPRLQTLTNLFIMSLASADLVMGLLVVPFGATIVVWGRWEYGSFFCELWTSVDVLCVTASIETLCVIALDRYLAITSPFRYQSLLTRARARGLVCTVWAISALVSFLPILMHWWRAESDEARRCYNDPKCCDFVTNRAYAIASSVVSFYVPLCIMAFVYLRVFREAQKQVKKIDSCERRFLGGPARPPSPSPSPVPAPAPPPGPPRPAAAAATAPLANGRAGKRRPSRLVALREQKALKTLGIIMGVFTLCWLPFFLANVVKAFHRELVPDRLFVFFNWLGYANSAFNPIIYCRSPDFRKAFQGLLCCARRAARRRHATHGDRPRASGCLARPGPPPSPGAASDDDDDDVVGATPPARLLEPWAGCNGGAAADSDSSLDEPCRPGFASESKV

Row | SMILES | Ki [1] [µM] | Ki [2] | Ki [3] [µM] | Ki [4]
1 | CC(C)(C)NCC(O)c1cc(O)cc(O)c1 (racemic) [Terbutaline,(+/-)] | – | – | > 10 | –
2 | COc1cc(C[C@@H]2NCCc3cc(O)c(O)cc32)cc(OC)c1OC [CAS_65772] | – | – | 0.11 | 0.0275 µM and 0.00977 µM
3 | CC(C)NCC(O)c1ccc(O)c(O)c1 (stereo not drawn) [Isoproterenol,(+)] | – | – | – | 0.324 µM and 0.107 µM
4 | CC(C)NCC(O)COc1cccc2[nH]ccc12 (stereo unspecified) [LB-46] | – | – | 0.00724 | 0.00263 µM and 0.00114 µM
5 | COc1c(I)cc(CC2NCCc3cc(O)c(O)cc32)cc1I (stereo unspecified) [TMQ, 3',5'-Diiodo] | – | 0.00058 µM and 0.00074 µM | 0.0105 | 0.00281 µM and 0.00097 µM
6 | COc1cc(CC2NCCc3c(F)c(O)c(O)c(F)c32)cc(OC)c1OC (stereo unspecified) [TMQ, 5,8-Difluoro] | 0.00741 | 0.0087 µM and 0.00616 µM | 0.0347 | 0.0066 µM and 0.00426 µM
7 | COc1cc(CC2NCCc3c2cc(O)c(O)c3C(F)(F)F)cc(OC)c1OC (stereo unspecified) [TMQ, 5-TrifluoroMe] | – | – | 1.1 | 1.17 µM and 0.912 µM
8 | COc1cc(CC2=NCCc3cc(O)c(O)cc32)cc(OC)c1OC [TMQ, Amidine] | – | – | – | > 10 µM
9 | COc1cc(CC2NCCc3cc(O)c(O)cc32)cc2c1OS(=O)O2 (stereo unspecified) [TMQ, Cyclic sulfite] | – | – | > 10 | 3.47 µM and 1.95 µM
10 | COc1cc(CC2c3cc(O)c(O)cc3CCN2Cc2cccc([N+](=O)[O-])c2)cc(OC)c1OC (stereo unspecified) [TMQ, N-nitro-benzyl] | – | – | – | 1.62 µM and 1.48 µM
11 | COc1cc(C[C@H]2NCCc3cc(O)c(O)cc32)cc(OC)c1OC [TMQ, R-(+)] | – | – | > 10 | > 10 µM and 9.33 µM
12 | COc1cc(C[C@H]2NCCc3cc(O)c(O)c(F)c32)cc(OC)c1OC [TMQ, R-(-)-8-Fluoro] | 0.417 | 0.437 µM | – | –

Second part, the compound after the results:

Row | Ki [1] [µM] | Ki [2] | Ki [3] [µM] | Ki [4] | SMILES
13 | 0.0371 | 0.0087 µM | – | – | COc1cc(CC2NCCc3cc(O)c(O)c(F)c32)cc(OC)c1OC (racemic) [NSC_128658]
14 | – | – | – | 0.105 µM and 0.0229 µM | COc1cc(CC2NCCc3cc(O)c(O)cc32)cc(OC)c1OC (stereo unspecified) [1-(3,4,5-Trimethoxy-benzyl)-1,2,3,4-tetrahydro-isoquinoline-6,7-diol]
15 | 0.214 | 0.141 µM | 0.457 | 0.49 µM and 0.0977 µM | COc1cc(CC2NCCc3cc(O)c(O)cc32)cc(N)c1OC (stereo unspecified) [TMQ, 3'-Amino]
16 | 0.0126 | 0.00269 µM and 0.00169 µM | 0.01 | 0.00109 µM and 0.00234 µM | COc1cc(CC2NCCc3cc(O)c(O)cc32)cc(I)c1OC (stereo unspecified) [TMQ, 3'-Iodo]
17 | 0.0148 | 0.0468 µM | 0.0316 | 0.011 µM and 0.00275 µM | COc1cc(CC2NCCc3cc(O)c(O)cc32)cc([N+](=O)[O-])c1OC (stereo unspecified) [TMQ, 3'-Nitro]
18 | – | 0.0102 µM | 0.0339 | 0.0371 µM and 0.0115 µM | COc1cc(CC2NCCc3c2cc(O)c(O)c3I)cc(OC)c1OC (stereo unspecified) [TMQ, 5-Iodo]
19 | – | 0.759 µM and 0.437 µM | 0.631 | 0.363 µM and 0.38 µM | COc1cc(CC2NCCc3cc(O)c(O)c(I)c32)cc(OC)c1OC (stereo unspecified) [TMQ, 8-Iodo]
20 | – | 0.933 µM | – | 3.72 µM and 1.32 µM | COc1cc(CC2c3cc(O)c(O)cc3CCN2Cc2cccc(N)c2)cc(OC)c1OC (stereo unspecified) [TMQ, N-amino-benzyl]
21 | – | – | 1.1 | – | COc1cc(CC2c3cc(O)c(O)cc3CCN2Cc2ccccc2)cc(OC)c1OC (stereo unspecified) [TMQ, N-benzyl]
22 | – | – | 6.17 | 1.26 µM | COc1cc(CC2c3cc(O)c(O)cc3CCN2Cc2cccc(Cl)c2)cc(OC)c1OC (stereo unspecified) [TMQ, N-chloro-benzyl]
23 | – | – | 3.55 | 1.86 µM | COc1cc(CC2c3cc(O)c(O)cc3CCN2Cc2ccc(Cl)c(Cl)c2)cc(OC)c1OC (stereo unspecified) [TMQ, N-dichlorobenzyl]
24 | – | – | 5.37 | 2.75 µM | COc1cc(CC2c3cc(O)c(O)cc3CCN2CCO)cc(OC)c1OC (stereo unspecified) [TMQ, N-hydroxyethyl]
25 | – | – | – | 0.851 µM | COc1cc(CC2c3cc(O)c(O)cc3CCN2C)cc(OC)c1OC (stereo unspecified) [TMQ, N-methyl]
26 | 0.0676 | 0.0102 µM | – | – | COc1cc(C[C@@H]2NCCc3cc(O)c(O)c(F)c32)cc(OC)c1OC [TMQ, S-(+)-8-Fluoro]
